Laboratory results taken from ChEMBL document CHEMBL5537158, “Polymyxins with Potent Antibacterial Activity against Colistin-Resistant Pathogens: Fine-Tuning Hydrophobicity with Unnatural Amino Acids” (J Med Chem, 2024).
Converted amounts (≈) assume the structure as drawn.

How the values were obtained:
Erythrocyte = test: Hemolytic activity in human RBC at 400 ug/ml after 1 hr; format: toxicity, cell-based; conditions: erythrocyte, 1 h, at 400 µg/mL
HepG2 = test: Cytotoxicity against human HepG2 cells incubated for 48 hrs by MTT assay; format: toxicity, cell-based
Pseudomonas aeruginosa [1] = test: Antimicrobial activity against Pseudomonas aeruginosa ATCC 27853 assessed as bacterial growth inhibition incubated for 20 hrs by broth microdilution method; format: functional
Acinetobacter baumannii [2] = test: Antimicrobial activity against colistin resistant Acinetobacter baumannii clinical isolate 1 assessed as bacterial growth inhibition incubated for 20 hrs by broth microdilution method; format: functional
Pseudomonas aeruginosa [3] = test: Potency index, ratio of colistin MIC to test compound MIC for antibacterial activity against colistin resistant Pseudomonas aeruginosa clinical isolate 1; format: functional
Klebsiella pneumoniae [4] = test: Antimicrobial activity against colistin resistant Klebsiella pneumoniae clinical isolate 3 assessed as bacterial growth inhibition incubated for 20 hrs by broth microdilution method; format: functional
Escherichia coli [5] = test: Antimicrobial activity against […] Escherichia coli harboring mcr-1 assessed as bacterial growth inhibition incubated for 20 hrs by broth microdilution method; format: functional
Escherichia coli [6] = test: Potency index, ratio of colistin MIC to test compound MIC for antibacterial activity against Escherichia coli harboring mcr-1; format: functional
Escherichia coli [7] = test: Potency index, ratio of colistin MIC to test compound MIC for antibacterial activity against […] Escherichia coli; format: functional
Pseudomonas aeruginosa [8] = test: Antimicrobial activity against colistin resistant Pseudomonas aeruginosa clinical isolate 1 assessed as bacterial growth inhibition incubated for 20 hrs by broth microdilution method; format: functional
Klebsiella pneumoniae [9] = test: Antimicrobial activity against colistin resistant Klebsiella pneumoniae clinical isolate 2 assessed as bacterial growth inhibition incubated for 20 hrs by broth microdilution method; format: functional
Escherichia coli [10] = test: Antibacterial activity against […] Escherichia coli clinical isolate 3 assessed as bacterial growth inhibition incubated for 20 hrs by broth microdilution method; format: functional
Klebsiella pneumoniae [11] = test: Antimicrobial activity against colistin resistant Klebsiella pneumoniae clinical isolate 1 assessed as bacterial growth inhibition incubated for 20 hrs by broth microdilution method; format: functional
Acinetobacter baumannii [12] = test: Antimicrobial activity against colistin resistant Acinetobacter baumannii clinical isolate 3 assessed as bacterial growth inhibition incubated for 20 hrs by broth microdilution method; format: functional
Klebsiella pneumoniae [13] = test: Antimicrobial activity against Klebsiella pneumoniae ATCC 13883 assessed as bacterial growth inhibition incubated for 20 hrs by broth microdilution method; format: functional
Acinetobacter baumannii [14] = test: Antimicrobial activity against colistin resistant Acinetobacter baumannii clinical isolate 2 assessed as bacterial growth inhibition incubated for 20 hrs by broth microdilution method; format: functional
Acinetobacter baumannii [15] = test: Antimicrobial activity against colistin resistant Acinetobacter baumannii clinical isolate 4 assessed as bacterial growth inhibition incubated for 20 hrs by broth microdilution method; format: functional
Pseudomonas aeruginosa [16] = test: Antimicrobial activity against Pseudomonas aeruginosa PAO1 assessed as bacterial growth inhibition incubated for 20 hrs by broth microdilution method; format: functional
Acinetobacter baumannii [17] = test: Antimicrobial activity against colistin resistant Acinetobacter baumannii ATCC 3658/17 assessed as bacterial growth inhibition incubated for 20 hrs by broth microdilution method; format: functional
Escherichia coli [18] = test: Antibacterial activity against […] Escherichia coli clinical isolate 2 assessed as bacterial growth inhibition incubated for 20 hrs by broth microdilution method; format: functional
Acinetobacter baumannii [19] = test: Antimicrobial activity against Acinetobacter baumannii ATCC 19606 assessed as bacterial growth inhibition incubated for 20 hrs by broth microdilution method; format: functional

For POLYMYXIN B, the Activity (Erythrocyte) was < 10% and the IC50 (HepG2) was > 1280 µg/mL.
Work on CCCCCCCC(=O)N[C@@H](CCN)C(=O)N[C@H](C(=O)N[C@@H](CCN)C(=O)N[C@H]1CCNC(=O)[C@H]([C@@H](C)O)NC(=O)[C@H](CCN)NC(=O)[C@H](CCN)NC(=O)[C@H](CCCc2ccccc2)NC(=O)[C@@H](Cc2ccccc2)NC(=O)[C@H](CCN)NC1=O)[C@@H](C)O yielded an MIC (Pseudomonas aeruginosa [1]) of 0.125 µg/mL (≈ 0.0999 µM), an MIC (Acinetobacter baumannii [2]) of 2 µg/mL (≈ 1.6 µM) and a Ratio (Pseudomonas aeruginosa [3]) of 2. For the same compound, the MIC (Klebsiella pneumoniae [4]) was 2 µg/mL (≈ 1.6 µM), the MIC (Escherichia coli [5]) was 0.5 µg/mL (≈ 0.4 µM) and the Ratio (Escherichia coli [6]) was 4. For the same compound, the Ratio (Escherichia coli [7]) was 4, the MIC (Pseudomonas aeruginosa [8]) was 2 µg/mL (≈ 1.6 µM) and the MIC (Klebsiella pneumoniae [9]) was 4 µg/mL (≈ 3.2 µM). For the same compound, the MIC (Escherichia coli [10]) was 1 µg/mL (≈ 0.799 µM), the MIC (Klebsiella pneumoniae [11]) was 8 µg/mL (≈ 6.39 µM) and the MIC (Acinetobacter baumannii [12]) was 1 µg/mL (≈ 0.799 µM). For the same compound, the MIC (Klebsiella pneumoniae [13]) was < 0.125 µg/mL, the MIC (Acinetobacter baumannii [14]) was 0.5 µg/mL (≈ 0.4 µM) and the MIC (Acinetobacter baumannii [15]) was 2 µg/mL (≈ 1.6 µM). The MIC (Pseudomonas aeruginosa [16]) was < 0.125 µg/mL, the MIC (Acinetobacter baumannii [17]) was < 0.125 µg/mL and the MIC (Escherichia coli [18]) was 1 µg/mL (≈ 0.799 µM). For the same compound, the MIC (Acinetobacter baumannii [19]) was 0.125 µg/mL (≈ 0.0999 µM).
